# Data reported in patent publication EP4570800A1, “CRYSTAL FORM OF PYRIDINOPYRIMIDINONE COMPOUND, ACID SALT THEREOF, CRYSTAL FORM OF ACID SALT THEREOF, AND USE” (Wuhan Humanwell Innovative Drug Research and Development …, priority 2022, dated 2024).
# Where a name gives a salt, the structure may show the parent alone.
# How the values were obtained:
# [1] = Hygroscopicity by dynamic vapor sorption (DVS); format: physicochemical; conditions: 25°C
# Description: The dynamic vapor sorption (DVS) curve was collected on DVS IntrInsic from SMS (surface measurement systems). The relative humidity at 25°C was corrected using the deliquescence points of LiCl, Mg(NO3)2, and KCl.
# Starting from 0%RH or room humidity, the test collected the mass change percentage of the sample as the humidity changed (0%RH to 95%RH) under constant temperature conditions of 25°C.
# [2] = Dynamic solubility in water, SGF, FaSSIF and FeSSIF; conditions: for S: solubility: 37°C, solid feed concentration 10 mg/mL; for pH: pH value of the filtrate
# Description: 100 mg of NaCl and 50 mg of Triton X-100 were weighed into a 50 mL volumetric flask, and purified water was added to complete dissolution. 816 µL of 1 M hydrochloric acid was added thereto, and the pH was adjusted to 1.8 with 1 M hydrochloric acid or 1 M NaOH solution. Purified water was added to make up to volume.
# 340 mg of anhydrous NaH2PO4, 42 mg of NaOH, and 620 mg of NaCl were weighed into a 100 mL volumetric flask. Purified water was added to complete dissolution. The pH was adjusted to 6.5 with 1 M hydrochloric acid or 1 M NaOH solution. Purified water was added to make up to volume. 110 mg of SIF powder was then weighed into a 50 mL volumetric flask, added with the above solution to complete dissolution and make up to volume.
# About 90 mL of purified water was added to complete dissolution, and the pH was adjusted to 5.0 with 1 M hydrochloric acid or 1 M NaOH solution. Purified water was added to make up to volume. 560 mg of SIF powder was then weighed into a 50 mL volumetric flask, added with the above solution to complete dissolution and make up to volume.
# Rotating mixing was carried out at 37°C at a solid feed concentration of 10 mg/mL (calculated as the compound of formula I). […] After sampling at each time point, the samples were centrifuged (10000 rpm) and filtered (0.45 µm PTFE filter head), and the HPLC concentration and pH value of the filtrate were measured.
# [3] = Influence of vacuum drying conditions on crystal form A (XRPD, HPLC purity); format: physicochemical
# Description: In order to evaluate the influence of the drying conditions on the crystal form A of the compound of formula I, the changes of the sample before and after vacuum drying of the crystal form A of the compound of formula I under the condition of 60°C/80°C for 4 hours were respectively investigated. The XRPD, ^1H NMR, and HPLC purity of the dried sample were tested. […]
# [4] = Solid state stability (XRPD and HPLC); format: physicochemical
# Description: The purity test, dynamic solubility test, and stability test in the assay were measured with an Agilent 1260 high-performance liquid chromatograph, and the salt formation molar ratio of ions was tested by ion chromatography, and the analytical conditions are shown in Table 5 and Table 6.
# Table 56 Summary of solid state stability evaluation
# LOVO colorectal cancer = experiment: In vivo efficacy test on LOVO colorectal cancer; design: species or system mice; conditions: 50 mg/kg, BID
# Description: After one week of adaptive feeding of mice, LOVO cells in a logarithmic phase were resuspended in serum-free F12K, 5 × 10^6 LOVO cells were inoculated subcutaneously at the right flank at 100 µL per mouse, and tumor growth was observed regularly. When the tumor grew to an average volume of 150 to 200 mm^3, the mice were randomly divided into a model group and an administration group based on the tumor size and body weight. The tumor size and body weight were measured and recorded before and during the administration. After the treatment, the tumor size in the model group was compared with that in the administration group to determine the efficacy.
# [5] = system: Mia Paca-2 pancreatic cancer; experiment: In vivo efficacy test on Mia Paca-2 pancreatic cancer; design: species or system mice; conditions: Mia Paca-2, BID
# Description: After one week of adaptive feeding of mice, Mia Paca-2 cells in a logarithmic phase were resuspended in serum-free DMEM, and then mixed with Matrigel in a ratio of 1: 1. 1 × 10^7 Mia Paca-2 cells were inoculated subcutaneously at the right flank at 100 µL per mouse, and tumor growth was observed regularly. When the tumor grew to an average volume of 150 to 200 mm^3, the mice were randomly divided into a model group and an administration group (single drug, in combination with trametinib) based on the tumor size and body weight. The tumor size and body weight were measured and recorded before and during the administration. After the treatment, the tumor size in the model group was compared with that in the administration group to determine the efficacy.
smiles,measurement,setting,value
Cc1nc(N[C@H](C)c2cccc(S(F)(F)(F)(F)F)c2)c2cn(C3(CF)CC3)c(=O)cc2n1,DVS behaviour when higher than 10% RH,[1]; higher than 10% RH,absorb more moisture and gain more weight with the increase of humidity
same,DVS behaviour when lower than 10% RH,[1]; lower than 10% RH,rapidly dehydrate
same,S: solubility,"[2]; FaSSIF, 1 hour, listed as Crystal form A of compound of formula I, 60 min",210 µg/mL
same,S: solubility,"[2]; FaSSIF, 4 hours, listed as Crystal form A of compound of formula I, 240 min",80 µg/mL
same,S: solubility,"[2]; FaSSIF, 24 hours, listed as Crystal form A of compound of formula I, 1440 min",50 µg/mL
same,S: solubility,"[2]; FeSSIF, 1 hour, listed as Crystal form A of compound of formula I, 60 min",2720 µg/mL
same,S: solubility,"[2]; FeSSIF, 4 hours, listed as Crystal form A of compound of formula I, 240 min",2880 µg/mL
same,S: solubility,"[2]; FeSSIF, 24 hours, listed as Crystal form A of compound of formula I, 1440 min",2740 µg/mL
same,S: solubility,"[2]; H2O, 1 hour, listed as Crystal form A of compound of formula I, 60 min",140 µg/mL
same,S: solubility,"[2]; H2O, 4 hours, listed as Crystal form A of compound of formula I, 240 min",110 µg/mL
same,S: solubility,"[2]; H2O, 24 hours, listed as Crystal form A of compound of formula I, 1440 min",110 µg/mL
same,S: solubility,"[2]; SGF, 1 hour, listed as Crystal form A of compound of formula I, 60 min",6840 µg/mL
same,S: solubility,"[2]; SGF, 4 hours, listed as Crystal form A of compound of formula I, 240 min",7670 µg/mL
same,S: solubility,"[2]; SGF, 24 hours, listed as Crystal form A of compound of formula I, 1440 min",7760 µg/mL
same,pH,"[2]; FaSSIF, 1 hour, listed as Crystal form A of compound of formula I",6.3
same,pH,"[2]; FaSSIF, 4 hours, listed as Crystal form A of compound of formula I",6.3
same,pH,"[2]; FaSSIF, 24 hours, listed as Crystal form A of compound of formula I",6.4
same,pH,"[2]; FeSSIF, 1 hour, listed as Crystal form A of compound of formula I",5.1
same,pH,"[2]; FeSSIF, 4 hours, listed as Crystal form A of compound of formula I",5.1
same,pH,"[2]; FeSSIF, 24 hours, listed as Crystal form A of compound of formula I",5.1
same,pH,"[2]; H2O, 1 hour, listed as Crystal form A of compound of formula I",5.4
same,pH,"[2]; H2O, 4 hours, listed as Crystal form A of compound of formula I",6.0
same,pH,"[2]; H2O, 24 hours, listed as Crystal form A of compound of formula I",5.8
same,pH,"[2]; SGF, 1 hour, listed as Crystal form A of compound of formula I",3.2
same,pH,"[2]; SGF, 4 hours, listed as Crystal form A of compound of formula I",3.3
same,pH,"[2]; SGF, 24 hours, listed as Crystal form A of compound of formula I",3.2
same,Area (%) of main peak (relative retention time 1.00) After vacuum drying at 60°C,"[3]; vacuum drying at 60°C for 4 hours, onset 97.07",97.11%
same,change in HPLC purity before and after drying,[3]; vacuum drying at 60°C/80°C for 4 hours,no significant change in purity
same,crystal form after vacuum drying (XRPD),"[3]; vacuum drying at 60°C/80°C for 4 hours, then 19°C/27% RH for 10-15 min",still the crystal form A of the compound of formula I
same,Area (%) of main peak (relative retention time 1.00) After vacuum drying at 80°C,"[3]; vacuum drying at 80°C for 4 hours, onset 97.07",97.14%
same,HPLC results Purity (area%),"[4]; 25°C/60%RH/open, 1 week, listed as Crystal form A of compound of formula I",97.13 area%
same,HPLC results Purity (area%),"[4]; 40°C/75%RH/open, 1 week, listed as Crystal form A of compound of formula I",97.14 area%
same,HPLC results Purity (area%),"[4]; Onset, listed as Crystal form A of compound of formula I",97.06 area%
same,Crystal form,"[4]; XRPD after 25°C/60%RH/open, 1 week, listed as Crystal form A of compound of formula I",Crystal form A of compound of formula I
same,Crystal form,"[4]; XRPD after 40°C/75%RH/open, 1 week, listed as Crystal form A of compound of formula I",Crystal form A of compound of formula I
same,solid state stability,"[4]; open, one week at 25°C/60% RH and 40°C/75% RH",good stability
"Cc1nc(N[C@H](C)c2cccc(C(F)F)c2F)c2cn(C3(C(F)F)CC3)c(=O)cc2n1 [Control compound 2, reference compound]",At the end of treatment Average tumor weight,LOVO colorectal cancer,1.08 g
same,Average tumor weight at the end of the treatment,[5]; 50 mg/kg,0.46 g
Cc1nc(N[C@H](C)c2cccc(S(F)(F)(F)(F)F)c2)c2cn(C3(CF)CC3)c(=O)cc2n1 [Crystal form B of citrate salt],S: solubility,"[2]; FaSSIF, 1 hour, 60 min",790 µg/mL
same,S: solubility,"[2]; FaSSIF, 4 hours, 240 min",1180 µg/mL
same,S: solubility,"[2]; FaSSIF, 24 hours, 1440 min",1610 µg/mL
same,S: solubility,"[2]; FeSSIF, 1 hour, 60 min",4090 µg/mL
same,S: solubility,"[2]; FeSSIF, 4 hours, 240 min",3520 µg/mL
same,S: solubility,"[2]; FeSSIF, 24 hours, 1440 min",2960 µg/mL
same,S: solubility,"[2]; H2O, 1 hour, 60 min",3610 µg/mL
same,S: solubility,"[2]; H2O, 4 hours, 240 min",3600 µg/mL
same,S: solubility,"[2]; H2O, 24 hours, 1440 min",3680 µg/mL
same,S: solubility,"[2]; SGF, 1 hour, 60 min",9130 µg/mL
same,S: solubility,"[2]; SGF, 4 hours, 240 min",9400 µg/mL
same,S: solubility,"[2]; SGF, 24 hours, 1440 min",9290 µg/mL
same,pH,"[2]; FaSSIF, 1 hour",4.5
same,pH,"[2]; FaSSIF, 4 hours",3.9
same,pH,"[2]; FaSSIF, 24 hours",3.6
same,pH,"[2]; FeSSIF, 1 hour",4.8
same,pH,"[2]; FeSSIF, 4 hours",4.6
same,pH,"[2]; FeSSIF, 24 hours",4.5
same,pH,"[2]; H2O, 1 hour",3.5
same,pH,"[2]; H2O, 4 hours",3.5
same,pH,"[2]; H2O, 24 hours",3.3
same,pH,"[2]; SGF, 1 hour",2.5
same,pH,"[2]; SGF, 4 hours",2.6
same,pH,"[2]; SGF, 24 hours",2.4
same,HPLC results Purity (area%),"[4]; 25°C/60%RH/open, 1 week",99.00 area%
same,HPLC results Purity (area%),"[4]; 40°C/75%RH/open, 1 week",99.01 area%
same,HPLC results Purity (area%),[4]; Onset,98.92 area%
same,Crystal form,"[4]; XRPD after 25°C/60%RH/open, 1 week",Crystal form A of citrate salt
same,Crystal form,"[4]; XRPD after 40°C/75%RH/open, 1 week",Crystal form A of citrate salt
CC(=O)Nc1cccc(-n2c(=O)n(C3CC3)c(=O)c3c(Nc4ccc(I)cc4F)n(C)c(=O)c(C)c32)c1 [Trametinib],Average tumor weight at the end of the treatment,[5]; 0.125 mg/kg,0.22 g
